Results published in BindingDB's records for doi:10.1021/acsmedchemlett.0c00533 (Reaction Biology, 2021).

Target: Mitogen-activated protein kinase 14 (Homo sapiens, UniProt Q16539)
Assay: Inhibition of P38alpha (unknown origin)

Sequence of Mitogen-activated protein kinase 14 (Q16539 whole entry): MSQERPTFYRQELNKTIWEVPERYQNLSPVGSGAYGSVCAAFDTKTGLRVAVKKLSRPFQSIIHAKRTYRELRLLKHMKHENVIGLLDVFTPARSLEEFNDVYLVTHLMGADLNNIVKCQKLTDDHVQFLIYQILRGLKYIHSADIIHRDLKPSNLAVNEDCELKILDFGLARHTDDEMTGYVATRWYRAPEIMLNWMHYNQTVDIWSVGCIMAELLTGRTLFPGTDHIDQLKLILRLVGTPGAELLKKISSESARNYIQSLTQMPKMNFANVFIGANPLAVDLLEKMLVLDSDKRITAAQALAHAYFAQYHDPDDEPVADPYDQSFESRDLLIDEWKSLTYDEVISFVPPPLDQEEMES

O=C(Nc1cnn(-c2csc(C(=O)NC3CNC3)c2)c1)Nc1ccccc1Cl
IC50: > 20 µM
